In US6562332B2, “Attractants of beneficial insects” (Iowa State University Research Foundation, Inc., priority 1999, dated 2003):
Entries after “also recorded” stand apart in the source; their conditions may differ.

Columns and labels:
[1] = tested on: antennae of Chrysoperla carnea; experiment: Electroantennogram (EAG) responses of Chrysoperla carnea antennae; conditions: for EAG response: C. carnea antennae
Procedure: (§1) Both sexes of C. maculata were handled vigorously, and pressed against a piece of filter paper (Whatman, No. 1), resulting in reflex bleeding production of orange colored fluid excreted through the joints of the legs, that was absorbed into the filter paper. Fluids from 20 beetles were collected. The filter paper used for the collection was then cut into small pieces and placed in a 2-ml vial and extracted with 200 μl of hexane for one hour. A volume of 10 μl of the concentrated extract was used for EAG tests.
(§2) Corn (Pioneer, Hybrid 3489) was grown in the greenhouse under approx. 25° C. and 75% humidity, with natural light supplemented by 400 Watt high pressure sodium lights. The three-leaf stage of plants was used for volatile collections, because this life stage is infested by corn leaf aphids (Bing, J. W., et al., 1992, J. Econ. Entomol.21:223-234) and it is also a stage searched by these predatory species. Corn leaves were removed from plants, and ca. 15 g placed in a 0.5-1 glass collector with two openings on each side. A stream of purified air passing through a freshly activated charcoal filter was blown into the inlet of the collector, through the corn leaves, then exited through the outlet connected to a Tenax trap. The trap consisted of a Pasteur pipette (5 cm long and 0.5 cm diameter) packed with 300 mg of Tenax (20-35 mesh, Alltech, Ill.). The flow rate of the air was 150 ml/min from the outlet of the Tenax trap, and the volatiles were collected for 18 hours. The trapped volatiles were eluted with HPLC-grade hexane. The extracts from three collections were combined and concentrated to 100 μl. Ten microliters of extracts were used for each EAG test.
(§3) Dried seeds and flowers of catnip, Nepeta cataria, were purchased from a local pet store. For EAG tests, approx. 0.2 mg of dried plant material was homogenized, then extracted by adding 500 μl of hexane. The extract was poured through a funnel with filter paper (Whatman No.1), and the residue was discarded. The extract was concentrated to 100 μl, under a mild stream of N2. The extract was then stored at −20° C. until used in EAG tests.
(§4) EAG recordings were made by connecting an electrogel-filled (Spectro 360, Parker Laboratory, New Jersey) glass-pipette Ag/AgCl electrode to the head of an excised beetle or lacewing. A recording electrode filled with the same electrogel connected to a high-impedance DC amplifier with automatic baseline drift compensation, was placed in contact with the tip of their antennae (intact). Antennal responses to various chemical stimuli were first recorded for a series of commercial synthetic compounds representing known corn leaf volatiles. Then, male and female body extracts of C. maculata, reflex bleeding extracts, aphid alarm pheromone and catnip extracts were tested. A second series of EAG tests was then conducted including dose-response series using selected EAG-active compounds from the first test. Serial dilutions of the tested compounds were made in redistilled HPLC-grade hexane at dosages ranging from 0.1 μg to 1000 μg, except α-terpineol, for which methylene chloride was used. The tested compounds and extracts were applied to filter-paper strips (0.5×2.5 cm, Whatman No.1) in 10 μl of solvent, except as otherwise noted. The filter-paper strips were inserted into Pasteur pipettes (15 cm long). Control puffs of air were applied after each puff of a test stimulus. The response to the air puff was used to normalize beetle or lacewing responses relative to the tested stimuli. The average EAG response to the air puff from antennae of C. maculata and C. carnea was 0.05±0.003 mV (n=30) and 0.02±0.001 mV (n=27), respectively. The relative EAG response of each stimulus was normalized by dividing the amplitude of the test stimulus by the mean of the response to the control puff. The sequence of exposure of each stimulus to each antenna was randomly defined.

C. carnea = conditions: earlier study, Flint et al. 1979; cited from earlier work
[2] = tested on: antennae of Coleomegilla maculata; experiment: Electroantennogram (EAG) responses of Coleomegilla maculata antennae; conditions: for EAG response: C. maculata antennae, both sexes; for dose at which EAG of male antennae reached saturation / EAG response threshold of female antennae / dose eliciting significant EAG responses from female antennae: dose-response; for EAG response threshold of female antennae: C. maculata female antennae versus male; for dose at which EAG saturation occurred / minimum dose for a significant EAG response: both male and female antennae; for dose eliciting significant EAG responses from female antennae: C. maculata female antennae
Procedure: Adults of both sexes were anesthetized by placing them at −20° C., then the abdomen and elytra of adults were cut off with a pair of fine scissors. Dissecting tools were rinsed with acetone several times between dissections to avoid cross-contamination. The dissected parts were extracted in a 1-ml vial containing 500 μl of hexane for two hours. Ten males and females were dissected and extracted. The extracts were concentrated to 200 μl under a mild stream of N2. Approximately 20 μl of the extracts, equivalent to one adult, was used for the EAG tests.
as §1, §2, §3
as §4, with “The response to the air puff was used to normalize beetle or lacewing responses relative to the tested stimuli. The average EAG response to the air puff from antennae of C. maculata and C. carnea was 0.05±0.003 mV (n=30) and 0.02±0.001 mV (n=27), respectively. The relative EAG response of each stimulus was normalized by dividing the amplitude of the test stimulus by the mean of the response to the control puff. The sequence of exposure of each stimulus to each antenna was randomly defined.” left out

Chrysoperla carnea = experiment: Field trapping test in an alfalfa field, C. carnea catches; assay type: in vivo; conditions: traps baited with 50 mg
Procedure: (§5) A field trapping test was conducted in an alfalfa field in Ames, Iowa. Synthetic compounds at a dose of 50 mg were prepared in hexane or methylene chloride. Medical peerless cotton rolls (5 cm long, 100% cotton) were used as dispensers, and the traps used were similar to the Rebell Trap (Great Lakes IPM, Mich.). The trap was hung from the bent end of an electric farm post, 1.2 m above the ground. Within a replicate (N=3), traps were set at least 10 m apart. The traps were checked daily, and trap position within a series was randomized to minimize the effects of habitat heterogenity.

Coleomegilla maculata = experiment: Field trapping test in an alfalfa field, C. maculata catches; assay type: in vivo; conditions: traps baited with 50 mg
Procedure: as §5

[3] = tested on: Coccinella septempunctata; conditions: Nakamuta 1991; cited from earlier work
Hippodamia convergens = conditions: behavioral test; cited from earlier work
Harmonia axyridis = conditions: behavioral test; cited from earlier work
C. cognata = conditions: Boo et al. 1998; cited from earlier work

Structure (SMILES)	EAG response ([1]; both sexes)	EAG response [2]	trap catches / attraction of C. maculata in field test (Coleomegilla maculata)	EAG response threshold of female antennae [2]	also measured
C=C1CC/C=C(\C)CC[C@@H]2[C@@H]1CC2(C)C [β-caryophyllene, β-Caryophyllene]	relatively low EAG response	highest EAG responses			attraction of adults of C. carnea in the field (C. carnea): acts as an attractant; trap catches / attraction of C. carnea in field test (Chrysoperla carnea): low catches
CCCCCCO [hexanol, 1-Hexanol]		EAG responses			
C=CC(=C)CC/C=C(\C)CCC=C(C)C [(E)-β-farnesene, (E)-β-Farnesene]	significant response; also recorded: increased with increasing doses; also recorded: highly sensitive; also recorded: most strongly	significantly higher; also recorded: highest EAG responses	no differences in catches		dose of highest EAG response ([1]; C. carnea, both sexes, dose-response): 1000 µg; EAG response of male antennae ([2]; C. maculata male antennae): as high as those in response to aphid sex pheromone; dose at which EAG of male antennae reached saturation ([2]; C. maculata male antennae): 100 µg; searching behaviors of Coccinella septempunctata [3]: does not elicit searching behaviors; attraction of Hippodamia convergens (Hippodamia convergens): attracted; attraction of Harmonia axyridis (Harmonia axyridis): attracted
CC/C=C\CCO [(Z)-3-hexenol, (Z)-Hexenol]	relatively lower EAG responses	EAG responses		higher thresholds	
CC1=COC(=O)[C@H]2[C@@H]1CC[C@@H]2C [(4aS,7S,7aR)-nepetalactone, reference compound]	responded; also recorded: significant EAG responses	responded; also recorded: relatively higher EAG response; also recorded: significant EAG responses		higher thresholds	EAG response of female antennae ([1]; C. carnea female antennae): greater; dose at which EAG saturation occurred ([2]; C. maculata): 100 µg; minimum dose for a significant EAG response ([2]; C. maculata): 100 µg; attraction of adult C. cognata in the field (C. cognata): attracted
CC1=CO[C@@H](O)[C@H]2[C@@H]1CC[C@@H]2C [(1R,4aS,7S,7aR)-nepetalactol, reference compound]	responded; also recorded: significant EAG responses	responded; also recorded: significant EAG responses			dose at which EAG saturation occurred ([2]; C. maculata): 100 µg; minimum dose for a significant EAG response ([2]; C. maculata): 100 µg
OCCc1ccccc1 [2-phenylethanol, 2-Phenylethanol]	significant response; also recorded: highly sensitive; also recorded: most strongly	significantly higher; also recorded: highest EAG responses	significantly attracted; also recorded: highly attractive		dosage eliciting significant EAG responses ([1]; C. carnea, antennae of both sexes): 10 µg; dose eliciting significant EAG responses from female antennae [2]: 10 µg; trap catches / attraction of C. carnea in field test (Chrysoperla carnea): significantly attracted; also recorded: highly attractive
CC1=CCC(C(C)(C)O)CC1 (stereo not drawn) [α-terpineol, α-Terpineol]	relatively lower EAG responses	significantly higher; also recorded: highest EAG responses	Significant catches	higher thresholds	dose eliciting significant EAG responses from female antennae [2]: 10 µg; dose at which EAG of male antennae reached saturation ([2]; C. maculata male antennae): 100 µg; trap catches / attraction of C. maculata in field test (Coleomegilla maculata; listed as a-terpineol): attracted
C=CC(O)CCCCC (stereo not shown) [1-octen-3-ol, 1-Octen-3-ol]		EAG responses			difference in EAG response between male and female antennae ([2]; C. maculata, male relative to female): significantly higher EAG response; also recorded: Sexual differences
